We go through six molecules from patent publication US20250345363A1, “ANTIMICROBIAL AND ANTIBIOFILM COMPOSITIONS AND USES THEREOF” (MHCombiotic Inc., priority 2024, published 2025).

Common to all, as to assay type: cell-based
Assay [1] relates to bacteria/candida biofilm (samples from Example 1). Nature of the assay: Prevention of biofilm formation, MBIC by crystal violet assay. The note with it: 48 hours at 37° C.; averaged results; unit not given. Here is the method:
For the prevention of biofilm formation, desired concentrations of metals (loid) and/or PBCs were added to 96 wells, with 1.0×10^6 CFU/ml bacteria/candida added to each well. The plates were then incubated for 48 hours at 37° C. in a microplate shaker incubator at 150 rpm. Afterward, the planktonic cells and spent medium were discarded, and the adhered biomass was rinsed twice with distilled water. Biofilm biomass and minimum biofilm inhibitory concentration (MBIC) were determined using the crystal violet assay. The well with no bacterial biofilm and an OD600 absorption of zero was considered the MBIC. Results from at least three separate biological replicates were averaged.
In the crystal violet assay, the microplates or Calgary biofilm device were rinsed twice with 200 μl of 0.9% saline, then stained with 200 μl of a 0.1% crystal violet solution for 30minutes. Following staining, the microplates and pegs were washed three times with 200 μl of ddH2O to remove excess dye. Biofilm quantification was performed by sonication using a 250HT™ ultrasonic cleaner (VWR International) set at 60 Hz for 10 minutes into 200 μl of 70% ethanol, and absorbance was read at 600 nm using 70% ethanol as the blank.

Assay [2] relates to bacteria/fungi samples from Example 1. The assay is described as follows: Planktonic susceptibility, MIC and MBC in 96-well microtiter plates. The following applies: averaged results. Here is the method:
Planktonic Susceptibility. Testing of planktonic susceptibility was conducted using MIC and MBC assessments on bacterial strains using 96-well microtiter plates. To prepare the wells for bacteria, serial dilutions of the antibacterial agents were Carried out along the rows of two microtiter plates. The antibacterials were 2-fold diluted with Mueller-Hinton broth (MHB) in each column, reaching a volume of 75 μL. The 1.0 McFarland standard was diluted 15-fold in MHB, and 75 μL of inoculum was added to the wells treated with antibacterials, resulting in a total volume of 150 μL. The microtiter plates were covered, then shake-incubated overnight at 150 rpm and 37° C. MIC was determined based on visible bacterial growth. In cases of Antibacterial opacity or ambiguous results, streaking of well cultures on Mueller-Hinton agar (MHA), overnight incubation, and subsequent comparison to controls were performed. MBC was determined by transferring 3 u L of culture from all MIC microtiter plate wells to 147 μL of MHB in fresh plates. These plates were shake-incubated overnight at 150 rpm and 37° C., and bacterial growth was visually inspected. Combination Antimicrobial Efficacy Testing. This checkerboard (96-well microtiter plates) included one column just media without bacteria/fungi and MBAs/PBCs (as a negative control), and one column without MBA/PBCs, with media, and bacteria/fungi (as a growth and positive controls control), MBAs and/or PBCs were diluted ½ across the rows (19, 20). For each analysis, the same MIC and MBC/MFC steps indicated above were conducted for surveying the bacteriostatic, bactericidal, and reading synergism effects of MBAs with PBCs combinations.
Samples from Example 1 were tested using combinations of additives as well as additives on their own for measuring bacteriostatic effects, bactericidal effects and biofilm inhibition properties.
Method of bacteriostatic effects, bactericidal effects explained in example 1 using MIC and MBC methods, respectively.

For assay [3], the system named is 11 different gram-positive and gram-negative bacteria as well as 7 different fungi, in total 18 microbes. Nature of the assay: Combination antimicrobial % efficacy in comparison to silver (MIC, MBC/MFC, MBIC averaged). The following applies: molar ratios Zinc 1:Carvacrol 3:Resveratrol 1:THC 0.1:CBD 0.1, averaged over all microbes and MIC, minimum of three biological repeats. The source says: Samples of 11 different gram-positive and gram-negative bacteria as well as 7 different fungi, in total 18 microbes included Pseudomonas aeruginosa ATCC 27853, Pseudomonas aeruginosa PAO1, Klebsiella pneumoniae ATCC 11296, Staphylococcus aureus ATCC 25923, Methicillin resistant S. aureus (MRSA) ATCC 33591, Escherichia coli ATCC 25922,Enterococcus faecium ATCC 19434, Staphylococcus epidermidis ATCC 12228, Enterococcus faecalis ATCC 29212, Proteus mirabilisATCC 35659, Acinetobacter baumannii CDC strain AR Bank #0033, Candida albicans ATCC 90028, Candida glabrata ATCC 2001, Candida parasilosis ATCC 22019, Candida krusei ATCC 14243, Candida tropicalis ATCC 13803, Candida auris ATCC MYA-5002, Aspergillus fumigatusATCC 16404 were used.
Metal (loid)-based antimicrobials (MBAs) including, silver nitrate (AgNO3, Sigma-Aldrich, St Louis, MO, USA Lot #M3259), potassium tellurite (K2TeO3, Sigma-Aldrich, St Louis, MO, USA, Cat #P2358-12C), hydrogen tetrachloroaurate (III) trihydrate (AuCl4.3H2O, Alfa Acsar Tweksbury, MA, USA, Lot #U17G046), zinc oxide nanoparticles, <100 nm (Sigma Aldrich), zinc sulfate (ZnSO4·1H2O), and zinc sulfate (ZnSO4.7H2O) were received from Fisher Scientific (Fair Lawn, NJ, USA, Lot #723689). […]
Planktonic Susceptibility. […] MIC was determined based on visible bacterial growth. […]

The subject of a further assay is microbes. The assay is described as follows: Evaluation of zinc sources for antimicrobial properties. The note with it: comparison of zinc sources.

Take `C[N+](C)(C)CC(=O)O` [Betaine (0.1%), Betaine]: the “Biofilm Inhibition (MBIC)” value in assay [1] is 1. Further, in assay [2] (unit inferred, unit assumed), the Bactericidal (MBC) came to 1 µg/mL and the Bacteriostatic (MIC) stood at 1 µg/mL.
Turning to `Cc1ccc(C(C)C)cc1O` [Carvacrol, 5-Isopropyl-2-methylphenol], the “Total antimicrobial efficacy percent over silver alone, including Antibacterial and antibiofilm efficacy (%)” value in assay [3] is recorded as 1.3%.
`OO` [H2O2 (1.5%), hydrogen peroxide]: the “Biofilm Inhibition (MBIC)” value in assay [1] was 0.5. In assay [2] (unit inferred, unit assumed), the Bactericidal (MBC) is 0.5 µg/mL and the Bacteriostatic (MIC) turned out to be 0.5 µg/mL.
For the molecule `OO` [H2O2 (3%), hydrogen peroxide], the “Biofilm Inhibition (MBIC)” value in assay [1] is 0.5. Further, in assay [2] (unit inferred, unit assumed), the Bactericidal (MBC) is 0.5 µg/mL and the Bacteriostatic (MIC) amounted to 0.25 µg/mL.
In the case of `O.O.O.O.O.O.O.O=S(=O)([O-])[O-].[Zn+2]` [zinc sulfate heptahydrate], the “Antimicrobial effects of zinc source (in words)” value in the assay with microbes is reported as “comparable to zinc sulfate monohydrate”.
For “benzalkonium chloride [Liquid BZK (0.1%)]”, the “Biofilm Inhibition (MBIC)” value in assay [1] is recorded as “(0.25-0.5)”. Moreover, the Bacteriostatic (MIC) in assay [2] (unit inferred, unit assumed) came out at 0.25 µg/mL. In assay [2] (unit not given), the “Bactericidal (MBC)” value is given as “(0.25-0.5)”.
